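Exposure lasted 48 hours, with cells grown in 96-well plates and compounds tested at five concentrations. Here, GI50 denotes the concentration required for 50% inhibition of growth. TGI: total growth inhibition.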
Columns and labels:
Assay in all cases: NCI tumour cell line growth inhibition, 48 h
[1] = test system: SNB-75 CNS
[2] = test system: SF-268 CNS
[3] = test system: K-562 leukemia
[4] = test system: OVCAR-5 ovarian
[5] = test system: LOX IMVI melanoma
[6] = test system: SW-620 colon
[7] = test system: TK-10 renal

SMILES | TGI [1] | TGI [2] | TGI [3] | TGI [4] | TGI [5] | TGI [6] | TGI [7] | GI50 [1] | GI50 [2] | GI50 [3] | GI50 [4] | GI50 [5] | GI50 [6] | GI50 [7]
COc1ccc(N=Nc2c(-c3ccccc3)nn(C(=O)CC(=O)Nc3cccc(Cl)c3)c2-c2ccccc2)cc1 | > 100 µM | > 100 µM | > 100 µM | > 100 µM | > 100 µM | > 100 µM | > 100 µM | – | – | – | – | – | – | –
C1C[S][Ge]2([S]CCO1)[S]CCOCC[S]2 | 48.4 µM | > 100 µM | > 100 µM | – | – | – | – | 2.51 µM | > 100 µM | > 100 µM | – | – | – | –
O=C(c1ccccc1)c1ccc(OCCOc2ccc(Nc3ccccc3)cc2)cc1 | 33.4 µM | > 100 µM | > 100 µM | > 100 µM | > 100 µM | > 100 µM | 84.3 µM | – | – | – | – | – | – | –
CC/C(=C(/CC)c1ccc([O-])cc1)c1ccc([O-])cc1.CC/C(=C(\CC)c1ccc([O-])cc1)c1ccc([O-])cc1.O=C([CH-]C(=O)c1ccccc1)c1ccccc1.O=C([CH-]C(=O)c1ccccc1)c1ccccc1.O=C([CH-]C(=O)c1ccccc1)c1ccccc1.O=C([CH-]C(=O)c1ccccc1)c1ccccc1.[Ti+4].[Ti+4] | – | > 100 µM | > 100 µM | > 100 µM | > 100 µM | 51.6 µM | > 100 µM | – | 35.8 µM | 23.9 µM | 45.8 µM | 43 µM | 21.4 µM | 45.2 µM
CC(=O)c1cccc(NC(=O)C(=O)C(C2OC(=O)c3ccccc32)[N+](=O)[O-])c1 (stereo not drawn) | > 100 µM | > 100 µM | > 100 µM | > 100 µM | > 100 µM | > 100 µM | > 100 µM | – | – | – | – | – | – | –
O=C(O)Cc1cccc2c1Oc1ccccc1S2 | > 100 µM | > 100 µM | > 100 µM | – | > 100 µM | > 100 µM | > 100 µM | – | – | – | – | – | – | –
O=c1cccccc1NCCCCCCNc1cccccc1=O | > 100 µM | > 100 µM | > 100 µM | > 100 µM | > 100 µM | > 100 µM | > 100 µM | – | – | – | – | – | – | –
CCSC1(SCC)CC(Cc2ccc(OC)cc2)N(C=NC(C)(C)C)C1 (stereo not drawn) | > 100 µM | > 100 µM | 53.8 µM | > 100 µM | 32.4 µM | 43.1 µM | 63.2 µM | – | – | – | – | – | – | –
CN[C@@H](C)[C@@H](N)c1ccccc1 | > 100 µM | – | > 100 µM | – | > 100 µM | > 100 µM | > 100 µM | – | – | – | – | – | – | –
CC(C)(C)CC(C)(C)c1cc2c(O)c(c1)Cc1cc(C(C)(C)CC(C)(C)C)cc(c1O)Cc1cc(C(C)(C)CC(C)(C)C)cc(c1O)Cc1cc(C(C)(C)CC(C)(C)C)cc(c1O)Cc1cc(C(C)(C)CC(C)(C)C)cc(c1O)Cc1cc(C(C)(C)CC(C)(C)C)cc(c1O)C2 | > 100 µM | > 100 µM | > 100 µM | > 100 µM | – | > 100 µM | > 100 µM | – | – | – | – | – | – | –
NNC(=S)N/N=C(/C(=O)Nc1cc(Cl)ccc1Cl)C1C(=O)Nc2ccccc2S1=O (stereo not drawn) | > 100 µM | > 100 µM | > 100 µM | > 100 µM | > 100 µM | > 100 µM | > 100 µM | – | – | – | – | – | – | –
COc1c(NC(C)=O)cc(C)cc1NC(C)=O | > 100 µM | > 100 µM | > 100 µM | – | > 100 µM | > 100 µM | > 100 µM | – | – | – | – | – | – | –
CCOC(=O)C1=C(O)CSC1=Nc1ccccc1 | > 100 µM | > 100 µM | > 100 µM | > 100 µM | > 100 µM | > 100 µM | > 100 µM | – | – | – | – | – | – | –
O=C1c2ccccc2C(=O)c2c(NCCNCCO)ccc(O)c21 | 15.7 µM | 13.1 µM | > 100 µM | 8.33 µM | 2.85 µM | 12.9 µM | 15.3 µM | – | – | – | – | – | – | –
Cc1c(C(=O)C/C(=N/NC(=O)C[n+]2ccccc2)C(=O)Nc2ccccc2)[n+](=O)c2ccccc2n1O | > 100 µM | > 100 µM | > 100 µM | > 100 µM | > 100 µM | > 100 µM | > 100 µM | – | – | – | – | – | – | –
O=C(c1cc2ccccc2o1)N(Cc1ccccc1)c1ccccc1 | > 100 µM | > 100 µM | 40 µM | > 100 µM | 39 µM | 32.4 µM | > 100 µM | – | – | – | – | – | – | –
C[C@]12CCc3nonc3C1CC[C@@H]1C2CC[C@]2(C)NC(=O)CCC12 (stereo partly drawn) | > 100 µM | > 100 µM | > 100 µM | > 100 µM | > 100 µM | > 100 µM | > 100 µM | – | – | – | – | – | – | –
O=C1N(c2ccccc2)C(=O)C2(SC=NN2Cc2ccccc2)N1c1ccccc1 (stereo not drawn) | > 100 µM | > 100 µM | > 100 µM | – | > 100 µM | > 100 µM | > 100 µM | – | – | – | – | – | – | –
COc1ccc(C(=O)C(C(=O)C(=O)Nc2ccc(Cl)c(Cl)c2)c2ccc(OC)cc2)cc1 (stereo not drawn) | > 100 µM | > 100 µM | > 100 µM | > 100 µM | > 100 µM | > 100 µM | > 100 µM | – | – | – | – | – | – | –
CC1(C)CCc2cc3c(cc2O1)OCC1c2cc4c(cc2OC31)OCO4 (stereo not drawn) | > 100 µM | > 100 µM | > 100 µM | > 100 µM | > 100 µM | > 100 µM | > 100 µM | – | – | – | – | – | – | –
